Values after ≈ are worked out from the molar mass of the structure shown.

For this series the following is noted: buffer; pH 7.4; 6.0 h; 150.0 µM.
Usually kinetic solubility stands for the concentration staying in solution when a stock, usually in DMSO, is diluted into the medium. For the molecule `COc1ccc(C2C=C(c3ccc(Cl)cc3)Nc3nc(-c4ccc(Cl)cc4)nn32)cc1` (stereo not given), the kinetic solubility is < 1 µg/mL.
The value for `Fc1ccc(Oc2nc(-c3ccncc3)nc3ccccc23)cc1F` was 6.95 µg/mL (≈ 20.7 µM); that for `COc1cc(Cl)ccc1C(=O)Nc1nc(-c2ccccc2)cs1` was < 1 µg/mL.
The value for `COc1ccc(CN2CCN(C(=O)c3cc4c(s3)CCC4)CC2)cc1` was > 53 µg/mL.
The value for `Cc1nn2c(c1-c1ccccc1-c1ccccc1)N(Cc1ccc(C(=O)O)s1)CCC2` was > 63 µg/mL.
`Cn1c2cc(S(C)=O)sc2c2cnn(Cc3cccc(N)c3)c(=O)c21` (stereo not given): the solubility (kinetic) is > 55 µg/mL.
With `O=S(=O)(c1ccccc1)c1nnn2c1nc(NCc1cccs1)c1sccc12`, the solubility (kinetic) is < 1 µg/mL.
The value for `CCOc1ccc(CCNC(=O)c2cc3sccc3n2C(C)C)cc1OCC` was 1.62 µg/mL (≈ 4.05 µM).
The value for `Cc1ccccc1C(=O)Nc1sc2c(c1C(=O)NCc1ccco1)CCC(C(C)(C)C)C2` (stereo not given) was < 1 µg/mL; that for `Cc1cc(-c2nc(Nc3ccc(F)c(F)c3)c3ccccc3n2)cc(C)n1` was < 1 µg/mL; that for `CCCn1cnc2cc(NCc3ccc(OC)cc3OC)ccc21` was 40.3 µg/mL (≈ 124 µM).
In the case of `O=[S+]([O-])(Nc1ccc2ccccc2c1)c1ccc(NCc2ccc(Cl)cc2O)cc1`, the kinetic solubility was < 1 µg/mL.
For the molecule `c1ccc(-c2ccc(CNc3nc(-c4ccccn4)nnc3-c3ccccc3)cc2)cc1`, the kinetic solubility was < 1 µg/mL.
As for `COc1ccc(C2=Nc3ccc(Br)cc3C(c3ccccc3)N2CC(=O)NN)cc1` (stereo not given), the figure is > 69 µg/mL.
In the case of `Cc1ccc(C)c(CN2C(=O)c3ccccc3S(=O)c3ccc(C(=O)N4CCN(c5ccccc5F)CC4)cc32)c1` (stereo not given), the solubility (kinetic) was < 1 µg/mL.
As for `CSc1nc(N)cc(Oc2ccc(-c3nc(Nc4cccc(C(F)(F)F)c4)n[nH]3)cc2)n1`, the figure is < 1 µg/mL; as for `NS(=O)(=O)c1ccc(Cc2c(-c3cccc(-c4ccccc4)c3)nn(-c3nc(C(=O)O)cs3)c2CC2CC2)cc1`, > 84 µg/mL; as for `Nc1ncccc1-c1nc2ccc(-c3ccccc3)nc2n1-c1ccc(C2(N)CCC2)cc1`, > 64 µg/mL.
Consider `FC(F)(F)Oc1cccc(Nc2nc(-c3ccncc3)nc3ccccc23)c1`, for which the kinetic solubility was < 1 µg/mL.
For the molecule `COc1cc(=O)n2c(c1C(=O)N(C)Cc1cscn1)CCN(C(=O)c1ccc(C)cc1C)CC2`, the kinetic solubility is > 71 µg/mL.
The molecule `Cc1ccc(S(=O)(=O)Nc2ccccc2C(=O)Nc2nccs2)cc1` displayed a solubility (kinetic) of 7.17 µg/mL (≈ 19.2 µM).
With `Cc1cnccc1-c1nc(Nc2ccc(F)c(F)c2)c2ccccc2n1`, the solubility (kinetic) was 1.43 µg/mL (≈ 4.09 µM).
The value for `Cc1cc(C)c(C(=O)Nc2cccc([S+](=O)([O-])Nc3ccc(Br)cc3)c2)[nH]1` was < 1 µg/mL.
As for `COC(=O)c1ccc2c(C(=Nc3ccc(N(C)C(=O)CN4CCN(C)CC4)cc3)c3ccccc3)c(O)[nH]c2c1`, the kinetic solubility is < 1 µg/mL.
The value for `Cc1ccc(-c2cc(C(=O)Nc3ncco3)c3ccccc3n2)cc1C` was 4.24 µg/mL (≈ 12.3 µM).
As for `COc1ccccc1-n1cnc2cc(C(=O)N3CCCCC3)ccc21`, the figure is > 50 µg/mL; as for `COc1ccccc1N1CCN(C2CCCCC2NS(=O)(=O)c2ccccc2)CC1` (stereo not given), 2.68 µg/mL (≈ 6.25 µM); as for `O=C(c1ccncc1)N1CCC2(CCCN(C(c3ccccc3)c3ccccc3)C2)CC1`, < 1 µg/mL.
Regarding `N#Cc1cccc(NC(=O)c2sc3nc4c(cc3c2N)N2CCC4CC2)c1`, the solubility (kinetic) was found to be 5.07 µg/mL (≈ 13.5 µM).
For `Cl.c1ccc(Nc2nc(NCc3ccco3)c3ccccc3n2)cc1`, the kinetic solubility was < 1 µg/mL.
For the molecule `O=S(=O)(Nc1ccc(C2CCNCC2)cc1)c1ccc(NCc2cccc(Cl)c2O)cc1`, the solubility (kinetic) amounted to 47.2 µg/mL (≈ 100 µM).
For `COc1ccc2[nH]c(=O)c(-c3noc(-c4ccccc4)n3)cc2c1`, the kinetic solubility was < 1 µg/mL.
The value for `Nc1nccc2c1ncn2[C@@H]1C=C(CO)[C@@H](O)[C@H]1O` was > 39 µg/mL; that for `NC(=O)C1CCN(c2nnc(-c3ccc(Br)cc3)s2)CC1` was 8.24 µg/mL (≈ 22.4 µM); that for `O=C1CCc2cc(S(=O)(=O)Nc3ccc(F)c(Cl)c3)c(F)cc2N1` was 13.4 µg/mL (≈ 35.9 µM).

The record behind these values is PubChem BioAssay AID1645848.
